≈ marks a conversion by molar mass, not a printed value. A value given as a limit tells only on which side of the number the result lay.

The text below walks through data of ChEMBL document CHEMBL4823271, “Synthesis and structure-activity relationship of new chalcone linked 5-phenyl-3-isoxazolecarboxylic acid methyl esters potentially active against drug resistant Mycobacterium tuberculosis” (Eur J Med Chem, 2021).

Common to all, as to type: functional
In test [1] the test system is Mycobacterium tuberculosis. As to the kind of experiment: Antimycobacterial activity against rifampicin-resistant Mycobacterium tuberculosis H37Rv ATCC 35838 assessed as inhibition of bacterial growth incubated for 48 hrs by broth microdilution assay.
For test [2], the system named is Mycobacterium tuberculosis. As to the kind of experiment: Antimycobacterial activity against ethambutol-resistant Mycobacterium tuberculosis H37Rv ATCC 35837 assessed as inhibition of bacterial growth incubated for 48 hrs by broth microdilution assay.
Test [3] deals with Mycobacterium tuberculosis. As to the kind of experiment: Antimycobacterial activity against isoniazid-resistant Mycobacterium tuberculosis H37Rv ATCC 35822 assessed as inhibition of bacterial growth incubated for 48 hrs by broth microdilution assay. For orientation: Broth dilution looks for growth in wells or tubes with falling amounts of substance.
For test [4], the system named is Mycobacterium tuberculosis. The experiment in a line: Antimycobacterial activity against Streptomycin-resistant Mycobacterium tuberculosis H37Rv ATCC 35820 assessed as inhibition of bacterial growth incubated for 48 hrs by broth microdilution assay.

In the case of `COC(=O)c1cc(-c2cccc(NC(=O)c3ccc(/C=C/C(=O)c4ccccc4C)cc3)c2)on1`, the MIC (usually the smallest concentration in the dilution series that meets the test's criterion for growth inhibition) was 0.25 mg/L (≈ 0.536 µM) in test [1], 0.12 mg/L (≈ 0.257 µM) in test [2], 1 mg/L (≈ 2.14 µM) in test [3] and 2 mg/L (≈ 4.29 µM) in test [4].

With `CCCOc1ccc(C(=O)/C=C/c2ccc(C(=O)Nc3cccc(-c4cc(C(=O)OC)no4)c3)cc2)cc1`, the MIC in test [1] stood at 0.03 mg/L (≈ 0.0588 µM); in test [2], 0.06 mg/L (≈ 0.118 µM); in test [3] it was 0.12 mg/L (≈ 0.235 µM); in test [4], 2 mg/L (≈ 3.92 µM).

As to `COC(=O)c1cc(-c2cccc(NC(=O)c3ccc(/C=C/C(=O)c4ccc(CC(C)C)cc4)cc3)c2)on1`, the MIC is 16 mg/L (≈ 31.5 µM) in test [1], greater than 64 mg/L in test [2], greater than 64 mg/L in test [3] and 1 mg/L (≈ 1.97 µM) in test [4].

For `COC(=O)c1cc(-c2cccc(NC(=O)c3ccc(/C=C/C(=O)c4ccc(F)cc4F)cc3)c2)on1`, the MIC in test [1] stood at 0.25 mg/L (≈ 0.512 µM); in test [2] it was 0.12 mg/L (≈ 0.246 µM); in test [3], 1 mg/L (≈ 2.05 µM); in test [4], 2 mg/L (≈ 4.09 µM).

In the case of `COC(=O)c1cc(-c2cccc(NC(=O)c3ccc(/C=C/C(=O)c4ccc(N5CCOCC5)cc4)cc3)c2)on1`, the MIC in test [1] is 0.12 mg/L (≈ 0.223 µM); in test [2] it was 0.12 mg/L (≈ 0.223 µM); in test [3] it was 0.12 mg/L (≈ 0.223 µM); in test [4], 2 mg/L (≈ 3.72 µM).

On to `COC(=O)c1cc(-c2cccc(NC(=O)c3ccc(/C=C/C(=O)c4ccc(C)cc4)cc3)c2)on1`, for which the MIC in test [1] is greater than 64 mg/L; in test [2], greater than 64 mg/L; in test [3], 0.5 mg/L (≈ 1.07 µM); in test [4], 0.25 mg/L (≈ 0.536 µM).

Consider `COC(=O)c1cc(-c2cccc(NC(=O)c3ccc(/C=C/C(=O)c4ccc(Cl)cc4)cc3)c2)on1`, for which the MIC was 2 mg/L (≈ 4.11 µM) in test [1], greater than 64 mg/L in test [2], greater than 64 mg/L in test [3] and 2 mg/L (≈ 4.11 µM) in test [4].

As for `CCOC(=O)c1cc(-c2cccc(NC(=O)c3ccc(/C=C/C(=O)c4ccc(Cl)cc4)cc3)c2)on1`, the MIC in test [1] was found to be 0.5 mg/L (≈ 0.998 µM); in test [2], 4 mg/L (≈ 7.99 µM); in test [3], 32 mg/L (≈ 63.9 µM); in test [4], 64 mg/L (≈ 128 µM).

In the case of `COC(=O)c1cc(-c2cccc(NC(=O)c3ccc(/C=C/C(=O)c4ccc(OC)cc4OC)cc3)c2)on1`, the minimum inhibitory concentration (MIC) in test [1] amounted to 0.25 mg/L (≈ 0.488 µM); in test [2], 0.25 mg/L (≈ 0.488 µM); in test [3], 2 mg/L (≈ 3.9 µM); in test [4] it was 2 mg/L (≈ 3.9 µM).

Take `COC(=O)c1cc(-c2cccc(NC(=O)c3ccc(/C=C/C(=O)c4ccccc4Cl)cc3)c2)on1`: the MIC in test [1] is 0.25 mg/L (≈ 0.513 µM); in test [2], 0.25 mg/L (≈ 0.513 µM); in test [3], 1 mg/L (≈ 2.05 µM); in test [4], 0.5 mg/L (≈ 1.03 µM).

Regarding `COC(=O)c1cc(-c2cccc(NC(=O)c3ccc(/C=C/C(=O)c4cccc(Cl)c4)cc3)c2)on1`, the MIC in test [1] was 0.5 mg/L (≈ 1.03 µM); in test [2] it was 0.12 mg/L (≈ 0.246 µM); in test [3], 0.5 mg/L (≈ 1.03 µM); in test [4], 0.5 mg/L (≈ 1.03 µM).

Turning to `COC(=O)c1cc(-c2cccc(NC(=O)c3ccc(/C=C/C(=O)c4ccc(Cl)cc4Cl)cc3)c2)on1`, the MIC is 64 mg/L (≈ 123 µM) in test [1], greater than 64 mg/L in test [2], greater than 64 mg/L in test [3] and 1 mg/L (≈ 1.92 µM) in test [4].

For the compound `CCOc1ccc(C(=O)/C=C/c2ccc(C(=O)Nc3cccc(-c4cc(C(=O)OC)no4)c3)cc2)cc1`, the MIC was 0.03 mg/L (≈ 0.0604 µM) in test [1], 0.06 mg/L (≈ 0.121 µM) in test [2], 0.5 mg/L (≈ 1.01 µM) in test [3] and 0.5 mg/L (≈ 1.01 µM) in test [4].

As to `COC(=O)c1cc(-c2ccc(NC(=O)c3ccc(/C=C/C(=O)c4ccc(Cl)cc4)cc3)cc2)on1`, the MIC in test [1] was 0.5 mg/L (≈ 1.03 µM); in test [2], 0.25 mg/L (≈ 0.513 µM); in test [3] it was 0.5 mg/L (≈ 1.03 µM); in test [4], 8 mg/L (≈ 16.4 µM).

For `CCOC(=O)c1cc(/C=C/c2c(Cl)cncc2Cl)on1`, the MIC in test [1] was 1 mg/L (≈ 3.19 µM); in test [2], 8 mg/L (≈ 25.5 µM); in test [3], 4 mg/L (≈ 12.8 µM); in test [4], 8 mg/L (≈ 25.5 µM).

For the compound `CC[C@@H](CO)NCCN[C@@H](CC)CO` [ETHAMBUTOL], the MIC was found to be 1 mg/L (≈ 4.89 µM) in test [1], 32 mg/L (≈ 157 µM) in test [2], 4 mg/L (≈ 19.6 µM) in test [3] and 1 mg/L (≈ 4.89 µM) in test [4].

In the case of `NNC(=O)c1ccncc1` [ISONIAZID], the MIC in test [1] was 0.03 mg/L (≈ 0.219 µM); in test [2] it was 0.03 mg/L (≈ 0.219 µM); in test [3] it was greater than 64 mg/L; in test [4], 0.03 mg/L (≈ 0.219 µM).

Consider `CO[C@H]1/C=C/O[C@@]2(C)Oc3c(C)c(O)c4c(O)c(c(/C=N/N5CCN(C)CC5)c(O)c4c3C2=O)NC(=O)/C(C)=C\C=C\[C@H](C)[C@H](O)[C@@H](C)[C@@H](O)[C@@H](C)[C@H](OC(C)=O)[C@@H]1C` [RIFAMPIN], for which the minimum inhibitory concentration (MIC) in test [1] was found to be 64 mg/L (≈ 77.8 µM); in test [2], 0.03 mg/L (≈ 0.0365 µM); in test [3] it was 0.03 mg/L (≈ 0.0365 µM); in test [4], 0.03 mg/L (≈ 0.0365 µM).

As for `CN[C@@H]1[C@H](O[C@H]2[C@H](O[C@H]3[C@H](O)[C@@H](O)[C@H](N=C(N)N)[C@@H](O)[C@@H]3N=C(N)N)O[C@@H](C)[C@]2(O)C=O)O[C@@H](CO)[C@H](O)[C@H]1O` [STREPTOMYCIN], the MIC is 1 mg/L (≈ 1.72 µM) in test [1], 2 mg/L (≈ 3.44 µM) in test [2], 1 mg/L (≈ 1.72 µM) in test [3] and greater than 64 mg/L in test [4].
